Data on six molecules can be found in PMC8586955, “Interaction Study between ESIPT Fluorescent Lipophile-Based Benzazoles and BSA” (Molecules, 2021).

The experiment has as its target T1, bovine serum albumin (BSA) (Bos taurus, UniProt P02769).
T1 construct: gene ALB
Kind of experiment: BSA intrinsic fluorescence quenching titration, ex […] nm. The experiment is classed as binding. Particulars: double-log; PBS pH 7.2, 25 °C, BSA 11 µM, ligand 0-20 µM.

T1 sequence (P02769 25-607): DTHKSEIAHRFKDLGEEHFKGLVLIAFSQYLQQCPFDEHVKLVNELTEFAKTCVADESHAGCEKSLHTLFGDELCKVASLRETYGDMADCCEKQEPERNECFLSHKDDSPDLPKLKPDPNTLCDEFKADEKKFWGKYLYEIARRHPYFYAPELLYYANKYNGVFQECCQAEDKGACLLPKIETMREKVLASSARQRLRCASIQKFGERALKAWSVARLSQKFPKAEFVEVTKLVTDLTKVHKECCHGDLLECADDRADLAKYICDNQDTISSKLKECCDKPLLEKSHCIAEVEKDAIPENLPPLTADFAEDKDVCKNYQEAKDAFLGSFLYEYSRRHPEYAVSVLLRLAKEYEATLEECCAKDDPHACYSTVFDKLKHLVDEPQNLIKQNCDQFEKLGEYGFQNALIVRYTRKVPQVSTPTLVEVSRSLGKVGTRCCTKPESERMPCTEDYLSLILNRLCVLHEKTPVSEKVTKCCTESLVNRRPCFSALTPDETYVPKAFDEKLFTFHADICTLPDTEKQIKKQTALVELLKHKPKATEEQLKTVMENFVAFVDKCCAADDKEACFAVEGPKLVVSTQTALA

In the case of `CCCCCCCCCCCCCCCCCCNCc1cc(C)c(O)c(-c2nc3ccccc3s2)c1` [compound 17, benzazole 17], the “KA (×10^4 M^-1)” value is 0.69 ×10^4 M^−1.

Consider `CCCCNCc1cc(C)c(O)c(-c2nc3ccccc3o2)c1` [compound 12, benzazole 12], for which the “KA (×10^4 M^-1)” value was 0.61 ×10^4 M^−1.

With `CCCCNCc1cc(C)c(O)c(-c2nc3ccccc3s2)c1` [compound 15, benzazole 15], the “KA (×10^4 M^-1)” value is on record as 0.73 ×10^4 M^−1.

On to `CCCCCCCCCCCCNCc1cc(C)c(O)c(-c2nc3ccccc3o2)c1` [compound 13, benzazole 13], for which the “KA (×10^4 M^-1)” value is listed as 0.74 ×10^4 M^−1.

Turning to `CCCCCCCCCCCCNCc1cc(C)c(O)c(-c2nc3ccccc3s2)c1` [compound 16, benzazole 16], the “KA (×10^4 M^-1)” value is 0.79 ×10^4 M^−1.

For `CCCCCCCCCCCCCCCCCCNCc1cc(C)c(O)c(-c2nc3ccccc3o2)c1` [compound 14, benzazole 14], the “KA (×10^4 M^-1)” value is on record as 0.59 ×10^4 M^−1.
